Tests used:
[1] = test system: R223X stop codon in the mutated luciferase gene, ADXC8 luciferase reporter cell line; experiment: cells; format: cell-based; conditions: 24 h, ADXC8 cells, 24 hours; for EC (100% of 200 uM G418 response): read-out: pC100%, negative logarithm of the concentration giving the same response as 200 μM G418; for Emax: read-out: Fold Over Control, maximum fold response relative to 200 μM G418
[2] = test system: R213X mutation in the p53 gene, HDQ-P1 cells; experiment: Read-through of R213X mutation in HDQ-P1 cells: truncated and full-length p53 by automated capillary electrophoresis western analysis; format: cell-based; conditions: Homo sapiens; for EC (50% of 200 uM G418 response): pC50% NMD: production of truncated p53, concentration giving 50% of the response of 200 μM G418, 24 h; for EC (100% of 200 uM G418 response): pC100% RT: production of full-length p53, concentration giving the same response as 200 μM G418, 24 h
Description: The ability of compounds to promote read-through in cells was assessed using the HDQ-P1 cell line which contain the R213X mutation in the p53 gene. […] Changes in the protein levels of p21, a direct downstream target of p53, were also determined as evidence of functional p53 protein production.
HDQ-P1 cells (R213X) were treated with DMSO (0.3%), or test article for 24 h at various concentrations. Cells were washed once with ice cold 1×PBS and lysed in M-Per protein extraction reagent (ThermoFisher), Benzonase® Nuclease and protease inhibitor mixture (Roche) centrifuged at 4° C. for 15 min at 16 000×g, the supernatants, termed cell extracts, were collected and total proteins were quantified with Bradford protein assay kit (ThermoFisher). Briefly, mixtures of cell lysates (protein concentration 0.5 mg/mL) and the fluorescent master mix were heated at 95° C. for 5 min. […] Signals were generated using BioTechne anti-mouse detection module and anti-rabbit NIR detection module. […] As an additional loading control, total protein levels were assessed with the ProteinSimple protein normalisation module. The data were acquired and analysed using the inbuilt Compass software (ProteinSimple) with the high dynamic range detection profile, which uses multiple substrate injections and exposure times. Electropherograms were converted to pseudo-blots and presented in figures for ease of visualization.
Concentration effect curves for both the production of truncated and full-length p53 were analysed using non-linear regression using the CDD Vault from Collaborative Drug Discovery (Burlingame, CA). […] The bottom and top of the curves were constrained to 0 and the maximum measured response respectively. From the fitted curves, the software derived C100% or C50% values (the concentration giving the same or 50% of the response of 200 μM G418) for each compound. The negative logarithm of C50% or C100% is reported as pC50% NMD or pC100% RT for the production of truncated or full-length p53 respectively (Table 2).

| Structure (SMILES) | EC (100% of 200 uM G418 response) [1] | EC (50% of 200 uM G418 response) [2] | Emax [1] | EC (100% of 200 uM G418 response) [2] |
| --- | --- | --- | --- | --- |
| CO[C@H]1CNC[C@@H]1Nc1nc(N)c2c(C)cc(C)nc2n1 [Example 583] | 0.01 to 0.1 µM | 1 to 10 µM |  |  |
| Cc1nc2nc(NC3CCN(Cc4cccc(F)c4O)CC3)nc(N)c2c2c1CCC2 [Example 531] | 0.1 to 1 µM | 1 to 10 µM | 100 to 3000% | 1 to 10 µM |
| Cc1c2c(nc3nc(NC4CCN(Cc5cccc(F)c5O)CC4)nc(N)c13)CCC2 [Example 532] | 0.01 to 0.1 µM | 0.1 to 1 µM | 100 to 3000% | 1 to 10 µM |
| CNc1nc(N[C@H]2CN(C)C[C@@H]2F)nc2nc3c(c(C)c12)CCC3 [Example 362] | 1 to 10 µM | 0.1 to 1 µM | 100 to 3000% | 1 to 10 µM |
| Cc1c2c(nc3nc(NC4CCN(Cc5ccc(C#N)cc5O)CC4)nc(N)c13)CCC2 [Example 526, 4-((4-((4-amino-5-methyl-7,8-dihydro-6H-cyclopenta[5,6]pyrido[2,3-d]pyrimidin-2-yl)amino)piperidin-1-yl)methyl)-3-hydroxybenzonitrile] | 0.01 to 0.1 µM | 0.1 to 1 µM | 100 to 3000% | 1 to 10 µM |
| Cc1cc(C)c2c(N)nc(N[C@@H]3CCCNC3)nc2n1 [Example 225, (R)-5,7-dimethyl-N^2-(piperidin-3-yl)pyrido[2,3-d]pyrimidine-2,4-diamine] | 0.1 to 1 µM | 0.1 to 1 µM |  | 1 to 10 µM |
| CNc1nc(NC2CCN(Cc3ccccc3O)CC2)nc2nc3c(c(C)c12)CCC3 [Example 656] | 0.01 to 0.1 µM | 0.1 to 1 µM | 100 to 3000% | 0.1 to 1 µM |
| Cc1cc(C)c2c(N)nc(N[C@H]3CCNC[C@@H]3C)nc2n1 [Example 641] | 10 to 100 µM |  | 100 to 3000% |  |
| Cc1cc(C)c2c(NCCS(C)(=O)=O)nc(NC3CCN(C)CC3)nc2n1 [Example 356] | > 31.6 µM |  | 0 to 100% |  |
| CN1CCC(Nc2nc(N)c3ccc(-c4ccccc4O)nc3n2)CC1 [Example 106] | > 100 µM |  | 0 to 100% |  |
| Nc1nc(NCCCN2CCOCC2)nc2nc(-c3ccccc3)c3c(c12)CCC3 [Example 129, N^3-(3-morpholinopropyl)-6-phenyl-8,9-dihydro-7H-cyclopenta[4,5]pyrido[2,3-d]pyrimidine-1,3-diamine] | 1 to 10 µM |  |  |  |
| Cc1ccc(CN2CCC(Nc3nc(N)c4c(C)cc(C)nc4n3)CC2)cc1 [Example 543] | 1 to 10 µM |  | 100 to 3000% |  |
| CN1CCC(Nc2nc(N)c3cc(-c4ccn(C)n4)cnc3n2)CC1 [Example 648] | > 100 µM |  | 0 to 100% |  |
| CCC(=O)O[C@H]1CN(C)C[C@@H]1Nc1nc(NC)c2c(C)c3c(nc2n1)CCC3 [Example 682] | 0.1 to 1 µM |  | 100 to 3000% |  |
| CNc1nc(N[C@H]2CN(C)C[C@H]2F)nc2nc(C)c3c(c12)CCC3 [Example 366] | 0.1 to 1 µM |  | 100 to 3000% |  |
| Cc1cc(C)c2c(N)nc(NC3CCN(Cc4ccc(CO)cc4)CC3)nc2n1 [Example 481] | 1 to 10 µM |  | 100 to 3000% |  |
| Cc1cc(C)c2c(N)nc(NC3CCN(Cc4cccc(C#N)c4)CC3)nc2n1 [Example 499] | 1 to 10 µM |  | 100 to 3000% |  |
| Cc1cc(C)c2c(N)nc(NCCN3CC4(COC4)C3)nc2n1 [Example 30, N^2-(2-(2-oxa-6-azaspiro[3.3]heptan-6-yl)ethyl)-5,7-dimethylpyrido[2,3-d]pyrimidine-2,4-diamine] | 10 to 100 µM |  | 100 to 3000% |  |
| CN1CCC(Nc2nc(N)c3ccc(-c4ccccc4Cl)nc3n2)CC1 [Example 115, 7-(2-chlorophenyl)-N^2-(1-methylpiperidin-4-yl) pyrido[2,3-d]pyrimidine-2,4-diamine] | 1 to 10 µM |  | 100 to 3000% |  |

| Structure (SMILES) | EC (100% of 200 uM G418 response) [1] | EC (50% of 200 uM G418 response) [2] | Emax [1] | EC (100% of 200 uM G418 response) [2] |
| --- | --- | --- | --- | --- |
| Cc1cc(C)c2c(N)nc(NCCN(C)c3ccccc3)nc2n1 [Example 143] | > 31.6 µM |  | 0 to 100% |  |
| Cc1cc(C)c2c(N)nc(N[C@@H]3CCN(Cc4ccc(C#N)cc4)C[C@@H]3F)nc2n1 [Example 575] | 10 to 100 µM |  | 100 to 3000% |  |
| Cc1cc(C)c2c(N)nc(NCCN3CC(C)OC(C)C3)nc2n1 (stereo not drawn) [Example 151] | > 31.6 µM |  | 0 to 100% |  |
| CNc1nc(N[C@H]2CN(C)C[C@@H]2C)nc2nc(C)cc(C)c12 [Example 381] | 1 to 10 µM |  | 100 to 3000% |  |
| COC(C)c1cnc2nc(NC3CCN(C)CC3)nc(N)c2c1 (stereo not drawn) [Example 284] | > 31.6 µM |  | 0 to 100% |  |
| Cc1cc(C)c2c(N)nc(N[C@@H]3CCN(CCO)C3)nc2n1 [Example 224, (R)-2-(3-((4-amino-5,7-dimethylpyrido[2,3-d]pyrimidin-2-yl)amino)pyrrolidin-1-yl)ethan-1-ol] | 10 to 100 µM |  | 100 to 3000% |  |
| COc1ccccc1CN1CCC(Nc2nc(N)c3c(C)cc(C)nc3n2)CC1 [Example 426, N^2-(1-(2-methoxybenzyl)piperidin-4-yl)-5,7-dimethylpyrido[2,3-d]pyrimidine-2,4-diamine] | 1 to 10 µM |  | 100 to 3000% |  |
| CNc1cc(NC2CCN(C)CC2)nc2nc(C)cc(C)c12 [Example 261, N^4,5,7-trimethyl-N^2-(1-methylpiperidin-4-yl)-1,8-naphthyridine-2,4-diamine] | 1 to 10 µM |  | 100 to 3000% |  |
| CNc1nc(N[C@H]2CNC[C@@H]2F)nc2nc3c(c(C)c12)CCC3 [Example 342] | 0.1 to 1 µM |  | 100 to 3000% |  |
| CNc1nc(N[C@H]2CCCN(C)C2)nc2nc(C)cc(C)c12 [Example 384] | 1 to 10 µM |  | 100 to 3000% |  |
| CNc1nc(N[C@@H]2CN(C)C[C@@H]2O)nc2nc3c(c(C)c12)CCC3 [Example 658] | 1 to 10 µM |  | 100 to 3000% |  |
| Cc1cc(C)c2c(N)nc(NC3CCN(Cc4cccc5nc[nH]c45)CC3)nc2n1 [Example 660] | 1 to 10 µM |  | 100 to 3000% |  |
| Cc1cc(C)c2c(N)nc(NC3CC4CC[C@@H](C3)N4C(=O)OC(C)(C)C)nc2n1 (stereo partly drawn) [Example 137] | 10 to 100 µM |  | 100 to 3000% |  |
| CC(=O)Nc1ccc(CN2CCC(Nc3nc(N)c4c(C)cc(C)nc4n3)CC2)cc1 [Example 458] | 10 to 100 µM |  | 100 to 3000% |  |
| Cc1cc(C)c2c(N)nc(NCCCN3Cc4ccccc4C3)nc2n1 [Example 194] | 10 to 100 µM |  | 100 to 3000% |  |
| CN1CCC(Nc2nc(N)c3cc(-c4ncco4)cnc3n2)CC1 [Example 645] | > 100 µM |  | 0 to 100% |  |
| CC#Cc1cnc2nc(NC3CCN(C)CC3)nc(N)c2c1 [Example 42, N^2-(1-methylpiperidin-4-yl)-6-(prop-1-yn-1-yl)pyrido[2,3-d]pyrimidine-2,4-diamine] | > 100 µM |  | 0 to 100% |  |
| Cc1c(Cl)c(-c2ccccc2)nc2nc(NCCCN3CCOCC3)nc(N)c12 [Example 128, 6-chloro-5-methyl-N2-(3-morpholinopropyl)-7-phenylpyrido[2,3-d]pyrimidine-2,4-diamine] | 1 to 10 µM |  |  |  |
| CNc1nc(N[C@@H]2CCCNCC2)nc2nc(C)cc(C)c12 [Example 402] | 1 to 10 µM |  |  |  |

Reference: patent publication US20260234144A1 (TAY THERAPEUTICS LIMITED, priority 2023, published 2026)
